{"source": "patent US20150141375A1", "about": "(priority 2009, published 2015)", "key": {"[1]": {"test": "3-way crossover bioavailability / food effect study in healthy volunteers", "assay_type": "in vivo, human", "method": "An open-label, 3-way crossover study in healthy volunteers comparing the bioavailability of CMX001 tablet versus solution formulation and the effect of food on CMX001 pharmacokinetics was completed. 24 healthy volunteers received 40 mg tablets (fed), 40 mg tablets (fasted), and 40 mg as a solution (fasted). […] Exposure as indicated by AUC was unchanged."}, "[2]": {"assay_type": "in vivo, human", "settings": "individual patients"}, "[3]": {"tested_on": "adenovirus", "test": "First fifteen EIND patients: adenovirus", "settings": "individual patients"}, "[4]": {"tested_on": "EBV", "test": "Patients with EBV-associated PTLD treated with CMX001", "assay_type": "in vivo, human", "excerpt": "The first patient is a patient with a history of sickle cell anemia developed EBV-associated intracranial post-transplant lymphoproliferative disorder (PTLD). EBV was positive in the plasma (7 Dec. and 14 Dec. 2010) and brain biopsies were consistent with PTLD. In early December, the patient presented with a 3 day history of persistent headache, nausea, vomiting, and diarrhea. […] The patient was admitted to PICU. High intracranial pressure, repetitive seizures associated with apnea led to intubtion and emergency request for CMX001. The use of CMX001 in this patient with EBV-associated PTLD is ongoing since 26 Dec. 2009.\nThe second patient was a heart transplant recipient with EBV-associated PTLD. The patient acquired a primary EBV infection post-operatively. […] The clinical condition continued to destabilize with what was presumed to be EBV-associated encephalitis with EBV detected in the CSF, clinical and EEG-correlated seizure activity and decreased responsiveness and changes in mental status. At the time of request for CMX001, the patient was on mechanical ventilation, had evidence of both pneumonia and PTLD of their lungs, evidence of seizure activity with clinical criteria for encephalopathy being present. The patient received their first dose of CMX001, 20 mg (approximately 3.3 mg/kg) on 3 Mar. 2010, and their second dose on 7 Mar. […] The patient continued to show evidence of progressive neurologic injury. The parents withdrew support on the day following their second dose of CMX001."}, "[5]": {"tested_on": "HSV-1", "test": "microbe, parasite or virus in culture", "assay_type": "cell-based"}, "[6]": {"tested_on": "HPV 18", "test": "In vitro potency against dsDNA viruses: HPV 18", "assay_type": "cell-based"}, "[7]": {"tested_on": "HCMV", "test": "HCMV viral DNA accumulation in HFF cells, real time PCR, 7 days", "assay_type": "cell-based"}, "[8]": {"tested_on": "HSV-2", "test": "In vitro efficacy against HSV-2 strains in HFF (CPE, plaque reduction)", "assay_type": "cell-based", "excerpt": "In vitro screening by CPE assay in human foreskin fibroblast (HFF) cells with confirmation using plaque reduction assays in HFF."}, "[9]": {"tested_on": "BK Virus", "settings": "has been reported; read-out: EC50 for BK virus infection; cited from earlier work"}, "[10]": {"tested_on": "EBV", "test": "In vitro potency against dsDNA viruses: EBV", "assay_type": "cell-based"}, "[11]": {"tested_on": "BKV", "test": "First fifteen EIND patients: BKV", "assay_type": "in vivo, human", "settings": "one of two BKV patients"}, "[12]": {"tested_on": "JCV", "test": "Patients with JC viral infections treated with CMX001", "assay_type": "in vivo, human", "method": "A study has been conducted on patients with various JC viral infections and diseases associated with JC virus. After these patients are treated with CMX001, the patients have shown significant improvements."}, "[13]": {"tested_on": "ADV", "test": "Retrospective analysis of EIND patients with AdV disease", "assay_type": "in vivo, human", "method": "The records of patients who were granted emergency investigational-new-drug approval for CMX001 for treatment of AdV were analyzed retrospectively. Of the 16 patients with AdV disease treated with CMX001, 13 had data available for ≧4 weeks after starting CMX001. Doses of CMX001 ranged from approximately 1 mg/kg once weekly to 4 mg/kg twice weekly. Adenovirus qPCR was performed at VireCor (9 cases), Focus Diagnostics (2) and Molecular Virology Laboratory, University of Washington (2). Disseminated AdV disease was defined by the isolation of the virus from 2 or more sites, including blood. At the end of CMX001 treatment, virologic response (VR) was defined as either ≧99% drop in plasma VL from baseline or undetectable plasma virus. The Wilcoxon signed rank test was used to evaluate whether VL changed from baseline to weeks 1, 2, 4, 6, and 8. Logistic regression models were employed to evaluate possible associations between covariates and VR."}}, "note": "“And” between values parts separate entries of the source, which are not always exact repeats. Equal entries are not always repeated. “Also recorded” adds a separate entry of the source. Where two headings read alike, the source gives them in different places."}
{"smiles": "CCCCCCCCCCCCCCCCOCCCOP(=O)(O)CO[C@H](CO)Cn1ccc(N)nc1=O", "note": "[CMX001, Hexadecyloxypropyl-cidofovir]", "values": [{"measurement": "adverse events", "setting": "[1]; 40 mg", "result": "no serious adverse events"}, {"measurement": "exposure as indicated by AUC", "setting": "[1]; 40 mg", "result": "unchanged"}, {"measurement": "reduction of plasma Cmax by a high fat meal", "setting": "[1]; 40 mg tablets", "result": "approximately 40%"}, {"measurement": "delay of Tmax, tablet versus liquid formulation", "setting": "[1]; 40 mg, fasted", "result": "~1", "unit": "h"}, {"measurement": "WBC (3)", "setting": "[2]; value on day one of CMX001 treatment", "result": "3.6 (3) and 5.2 (3) and 2.17 (3)"}, {"measurement": "WBC (4)", "setting": "[2]; value on last day of CMX001 treatment", "result": "5.4 (4) and 4.3 (4)"}, {"measurement": "AdV viremia after 1st week", "setting": "[3]", "result": "3.2 Log 10 copies/mL and 5.4 Log 10 copies/mL and 5.0 Log 10 copies/mL and 2.3 Log 10 copies/mL and 7.4 Log 10 copies/mL and 3.4 Log 10 copies/mL and 5.2 Log 10 copies/mL and 2.0 Log 10 copies/mL"}, {"measurement": "AdV viremia after 1st week, change from pre-RX", "setting": "[3]", "result": "4.0 Log 10 copies/mL and 1.0 Log 10 copies/mL and 0.5 Log 10 copies/mL and 1.9 Log 10 copies/mL and 0.7 Log 10 copies/mL and 2.0 Log 10 copies/mL and 1.3 Log 10 copies/mL and 2.5 Log 10 copies/mL"}, {"measurement": "AdV viremia after 2nd week", "setting": "[3]", "result": "2.2 Log 10 copies/mL (2×) and 6.2 Log 10 copies/mL (2×) and 4.1 Log 10 copies/mL and 7.0 Log 10 copies/mL and 3.3 Log 10 copies/mL and 0 Log 10 copies/mL"}, {"measurement": "AdV viremia after 2nd week, change from pre-RX", "setting": "[3]", "result": "5.0 Log 10 copies/mL and 0.2 Log 10 copies/mL and 1.3 Log 10 copies/mL and 2.0 Log 10 copies/mL and 1.1 Log 10 copies/mL and 2.1 Log 10 copies/mL and 0.3 Log 10 copies/mL and 4.5 Log 10 copies/mL"}, {"measurement": "Outcome", "setting": "[3]", "result": "Survived; also recorded: Death"}, {"measurement": "EBV viral load", "setting": "[4]; heart transplant recipient, 7 Mar. 2010 after first dose 20 mg (3 Mar. 2010: 267,338)", "result": "47,427 copies/mL"}, {"measurement": "EBV in the plasma", "setting": "[4]; patient, 4 mg/kg twice weekly", "result": "remains negative"}, {"measurement": "tolerability", "setting": "[4]; patient, 4 mg/kg twice weekly", "result": "tolerated CMX001 well"}, {"measurement": "EC50", "setting": "[5]; Human alphaherpesvirus 1, ACV resistant strain B-2006", "result": "10 ± 0.7", "unit": "nM"}, {"measurement": "EC50", "setting": "[5]; Human alphaherpesvirus 1, ACV resistant strain DM2.1", "result": 8, "unit": "nM"}, {"measurement": "EC50", "setting": "[5]; Human alphaherpesvirus 1, ACV resistant strain PAAr5", "result": 10, "unit": "nM"}, {"measurement": "EC50", "setting": "[5]; Human alphaherpesvirus 1, F (wild type), Table 9", "result": "15 ± 6", "unit": "nM"}, {"measurement": "EC50", "setting": "[5]; Human alphaherpesvirus 1, SC16, ACV resistant strain SC16-S1", "result": 10, "unit": "nM"}, {"measurement": "EC50", "setting": "[5]; Human alphaherpesvirus 1, read-out: EC50 range, panel of wild-type and ACV-resistant isolates of HSV-1 and HSV-2", "result": "8 to 30", "unit": "nM"}, {"measurement": "EC50", "setting": "[5]; Human alphaherpesvirus 1, strain E-377", "result": "60 ± 30", "unit": "nM"}, {"measurement": "EC50", "setting": "[5]; Human alphaherpesvirus 1, strain F", "result": "10 ± 5", "unit": "nM"}, {"measurement": "EC50", "setting": "[5]; Human alphaherpesvirus 1, strain HL-3", "result": "10 ± 10", "unit": "nM"}, {"measurement": "Enhanced Activity", "setting": "[6]; CMX001 versus cidofovir EC50", "result": 1229}, {"measurement": "EC50", "setting": "[6]; HeLa", "result": 420, "unit": "nM"}, {"measurement": "concentration reducing the quantity of viral DNA by 10-fold", "setting": "[7]", "result": "less than 1 nanomolar"}, {"measurement": "reduction of accumulation of viral DNA", "setting": "[7]", "result": "at least three orders of magnitude"}, {"measurement": "fold reduction of viral DNA", "setting": "[7]; CMX001 10 nanomolar", "result": 1000, "unit": "fold"}, {"measurement": "amplification of viral DNA", "setting": "[7]; CMX001 above 10 nM", "result": "essentially eliminated the amplification of viral DNA"}, {"measurement": "EC50", "setting": "[8]; Human alphaherpesvirus 2, ACV resistant strain 11572", "result": "27 ± 18", "unit": "nM"}, {"measurement": "EC50", "setting": "[8]; Human alphaherpesvirus 2, ACV resistant strain 11680", "result": "9 ± 0.7", "unit": "nM"}, {"measurement": "EC50", "setting": "[8]; Human alphaherpesvirus 2, ACV resistant strain 12247", "result": "21 ± 12", "unit": "nM"}, {"measurement": "EC50", "setting": "[8]; Human alphaherpesvirus 2, ACV resistant strain AG-3", "result": "23 ± 9", "unit": "nM"}, {"measurement": "EC50", "setting": "[8]; Human alphaherpesvirus 2, G (wild type), Table 9", "result": "29 ± 15", "unit": "nM"}, {"measurement": "EC50", "setting": "[8]; Human alphaherpesvirus 2, strain G", "result": "10 ± 10", "unit": "nM"}, {"measurement": "EC50", "setting": "[8]; Human alphaherpesvirus 2, strain MS", "result": "80 ± 70", "unit": "nM"}, {"measurement": "EC50", "setting": "[8]; Human alphaherpesvirus 2, strain SR", "result": "20 ± 20", "unit": "nM"}, {"measurement": "EC50", "setting": "[9]", "result": 140, "unit": "nM"}, {"measurement": "Enhanced Activity", "setting": "[10]; CMX001 versus cidofovir EC50", "result": ">4250"}, {"measurement": "EC50", "setting": "[10]; human gammaherpesvirus 4, Dardi", "result": 40, "unit": "nM"}, {"measurement": "response", "setting": "[11]", "result": "> 1.5", "unit": "log 10"}, {"measurement": "JCV Viral Load, Urine", "setting": "[12]; Sub 1, D7", "result": "D7: 557 copies/mL"}, {"measurement": "JCV Viral Load, CSF", "setting": "[12]; Sub 1, ~5 wks 2 mg/kg, D32 (Pre: 306)", "result": "D32: <300 copies/mL"}, {"measurement": "JCV Viral Load, CSF", "setting": "[12]; Sub 3, 4 days (2 doses) 4 mg/kg, Post (Pre: 518)", "result": "Post: <500 copies/mL"}, {"measurement": "JCV Viral Load, Blood", "setting": "[12]; Sub 4, EOT (Pre: 148)", "result": "EOT: 261 copies/mL"}, {"measurement": "JCV Viral Load, CSF", "setting": "[12]; Sub 4, ~2.5 wks 4 mg/kg, EOT (Pre: 16,474)", "result": "EOT: 1070 copies/mL"}, {"measurement": "JCV Viral Load, Blood", "setting": "[12]; Sub 5, ongoing ~3 wks 4 mg/kg, D7 (Pre: 1800)", "result": "D7 500 copies/mL"}, {"measurement": "Clinical Comment", "setting": "[12]; individual patients Sub 1-5 during CMX001 treatment", "result": "During treatment, the patient regained swallowing; also recorded: became undetectable (<300 copies/mL) in the CSF"}, {"measurement": "patients achieving virologic response (VR)", "setting": "[13]; 8 of 13 patients, VR = ≧99% drop in plasma VL or undetectable", "result": 61.5, "unit": "%"}, {"measurement": "safety", "setting": "[13]; 13 patients", "result": "No serious adverse events, gastro-intestinal, renal or bone marrow toxicity were reported"}, {"measurement": "Median decrease from baseline, adenovirus viral load", "setting": "[13]; Week 1", "result": 1.43, "unit": "log10"}, {"measurement": "Median decrease from baseline, adenovirus viral load", "setting": "[13]; Week 2", "result": 1.71, "unit": "log10"}, {"measurement": "Median decrease from baseline, adenovirus viral load", "setting": "[13]; Week 4", "result": 1.89, "unit": "log10"}, {"measurement": "Median decrease from baseline, adenovirus viral load", "setting": "[13]; Week 6", "result": 2.44, "unit": "log10"}, {"measurement": "Median decrease from baseline, adenovirus viral load", "setting": "[13]; Week 8", "result": 2.98, "unit": "log10"}]}
